A word on the Ki: it is a dissociation constant, usually derived from enzyme kinetics or from competition with a known ligand. As usually defined, the Emax is the size of the effect at its maximum, as opposed to the concentration needed.

Assay [1] addresses T1, hCTR N365A (Homo sapiens, UniProt P30988, N365A).
T1 construct: c-Myc (N); expressed in transfected cells
T1 sequence (P30988 25-474 N365A): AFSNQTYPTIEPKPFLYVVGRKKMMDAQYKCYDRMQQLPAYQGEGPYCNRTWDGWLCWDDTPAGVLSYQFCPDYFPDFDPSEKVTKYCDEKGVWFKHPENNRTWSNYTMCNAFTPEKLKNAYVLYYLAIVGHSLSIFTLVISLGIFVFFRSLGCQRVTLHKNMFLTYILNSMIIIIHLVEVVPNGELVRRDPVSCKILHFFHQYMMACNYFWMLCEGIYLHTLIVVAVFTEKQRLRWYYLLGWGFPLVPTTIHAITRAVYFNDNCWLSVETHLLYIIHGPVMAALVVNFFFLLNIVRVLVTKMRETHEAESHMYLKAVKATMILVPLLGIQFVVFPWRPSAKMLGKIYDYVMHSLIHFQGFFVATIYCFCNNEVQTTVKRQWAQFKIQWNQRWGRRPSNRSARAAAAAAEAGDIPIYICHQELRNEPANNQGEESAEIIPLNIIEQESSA
As to the kind of experiment: Homologous whole cell competition binding. The following applies: homologous competition of 125I-sCT(8-32), whole cells, mean ± S.E.M., SEM. How it is done: (§1) Homologous radioligand competition was performed on 2.5 × 10^4 cells/well seeded into 96-well trays and cultured overnight. Cells were incubated overnight at 4 °C with two concentrations of ^125I-sCT(8-32) (between 25 and 100 pM; specific activity, 2000 Ci/mmol^9) and serial dilutions of non-iodinated sCT(8-32). Non-bound ligand was removed and bound ligand activity was measured using a γ counter (Wallac Wizard 1470 Gamma Counter, Perkin Elmer, 80% counter efficiency). Values were normalized against non-specific binding (0%) defined by the presence of 1 μM of unlabelled sCT(8-32), and total ligand bound in absence of competing sCT(8-32) (100%).
(§2) IC50 and Bmax values were estimated from competitive inhibition of ^125I-sCT(8-32) binding using a 3-parameter logistic equation (log(inhibitor versus response)) in Prism (v7; Graphpad). Data were corrected for radioligand occupancy using the Cheng-Prusoff equation in Prism; as such data are reported as pKi. Emax and EC50 were estimated from concentration-response curves using with a 3-parameter logistic equation in Prism (v7). These values are a composite of functional affinity, efficacy and stimulus response coupling. The Black and Leff operational model of agonism was applied to separate effects on pathway-specific efficacy (τ) from those that modify ligand functional affinity (pKA). Derived τ values were normalized to experimentally determined levels of cell surface expression to provide a measure of efficacy (τc) that is independent of affinity and altered cell surface receptor expression. pKi, pKA and log τc values for mutant receptors were statistically compared to those of the WT receptor using a one-way analysis of variance (ANOVA) and Dunnett’s post-test. Significance was accepted at P < 0.05.

For assay [2], the target named is T2, hCTR V283A (Homo sapiens, UniProt P30988, V283A).
T2 construct: expressed in transfected cells
T2 sequence (P30988 25-474 V283A): T1 sequence (P30988 25-474 N365A) with V259A, A341N
Description: Homologous whole cell competition binding. The following applies: homologous competition of 125I-sCT(8-32), whole cells, mean ± S.E.M., SEM. The procedure:
as §1, §2

Assay [3] concerns the target T3, hCTR I279A (Homo sapiens, UniProt P30988, I279A).
T3 construct: expressed in transfected cells
T3 sequence (P30988 25-474 I279A): T1 sequence (P30988 25-474 N365A) with I255A, A341N
Description: Homologous whole cell competition binding. The following applies: homologous competition of 125I-sCT(8-32), whole cells, mean ± S.E.M., SEM. The procedure:
as §1, §2

Assay [4] concerns the target T4, hCTR I300A (Homo sapiens, UniProt P30988, I300A).
T4 construct: c-Myc (N); expressed in transfected cells
T4 sequence (P30988 25-474 I300A): T1 sequence (P30988 25-474 N365A) with I276A, A341N
As to the kind of experiment: IP1 accumulation. Type of assay: cell-based. The note with it: IP1 maximal response, mean ± S.E.M., SEM. The method in brief:
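Ligand-induced IP1 (60 min, LiCl) measured by HTRF; normalized to 100 μM ATP response.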

Changes are numbered by the printed parent chain. Where no end group is shown, it is not given here.

Consider “VLGKLSQELHKLQTYPRTNTGSGTP-NH2 [sCT(8-32)]”, for which the Ki in assay [1] is 0.234 nM; in assay [2], 0.214 nM; in assay [3] it was 0.191 nM.

Compound `CC[C@H](C)[C@H](NC(=O)[C@H](C)NC(=O)[C@@H](NC(=O)[C@H](CCC(N)=O)NC(=O)[C@@H]1CCCN1C(=O)[C@H](Cc1ccccc1)NC(=O)[C@@H](NC(=O)[C@H](Cc1c[nH]cn1)NC(=O)[C@H](Cc1ccccc1)NC(=O)[C@H](CCCCN)NC(=O)[C@H](CC(N)=O)NC(=O)[C@H](Cc1ccccc1)NC(=O)[C@H](CC(=O)O)NC(=O)[C@H](CCC(N)=O)NC(=O)[C@@H](NC(=O)[C@H](Cc1ccc(O)cc1)NC(=O)[C@@H](NC(=O)CNC(=O)[C@H](CC(C)C)NC(=O)[C@H](CCSC)NC(=O)[C@@H]1CSSC[C@H](N)C(=O)NCC(=O)N[C@@H](CC(N)=O)C(=O)N[C@@H](CC(C)C)C(=O)N[C@@H](CO)C(=O)N[C@@H]([C@@H](C)O)C(=O)N1)[C@@H](C)O)[C@@H](C)O)[C@@H](C)O)[C@@H](C)O)C(=O)NCC(=O)N[C@H](C(=O)NCC(=O)N[C@@H](C)C(=O)N1CCC[C@H]1C(N)=O)C(C)C` [hCT] showed an Emax in assay [4] of 44 ± 4%.

For the origin of these results see paper PMC5908784, “Extracellular loops 2 and 3 of the calcitonin receptor selectively modify agonist binding and efficacy” (Biochemical Pharmacology, 2018).
